Reference: patent US20080280996A1, “Use of Carophyllenes in the Manufacture of Medicaments and Treatment of Bodily Conditions of Inflammation and Inflammatory Pain” (priority 2004, published 2008)

Columns and labels:
[1] = tested on: histamine-induced oedema; test: Histamine oedema in mouse paw; assay type: in vivo; details: mice, histamine 100 nmol/paw intraplantar; 50 mg/kg orally 1 h before; 10 min to 48 h
Experimental: The test used below is described by Cunha et. al. in the publication Life Sci. 70:159-169, 2001. Male 25 g-35 g mice were slightly sedated with ether and were injected 50 μl saline containing histamine (100 nmol/paw), intraplantar, in the right paw. The left paw received the same volume of saline and was taken as negative control. The swelling was measured with a plethysmometer (manufacturer: Ugo Basile, Italy) along various time intervals after the injection of the phlogistic agent. The difference between the volumes of the right and the left paw were quantified (in ml) and taken as an index of oedema. One hour before the test the animals were systemically treated (orally) with 50 mg/kg of alpha-humulene. Graph 4 below compares the inhibition of the volume of the oedema by administration of alpha-humulene. Oedema volume measurement time intervals were 10, 20, 30, 60, and 120 min, 24 h and 48 h. Each point represents the average of 5 animals, and the vertical bars the mean standard deviation.

[2] = tested on: TNFα; test: Levels of pro-inflammatory cytokine TNFα in carrageenin-injected rat paw (Elisa); assay type: in vivo; details: 50 mg/kg orally 60 minutes before carrageenin 300 μg/paw, tissue after 180 minutes
Experimental: The test used below is described by Campos et. al. in the publication Br. J. Pharmacol. 135: 1107-1114, 2002, with minor modifications.
Male […]-180 g rats were orally given 50 mg/kg of trans-caryophyllene. Animals treated with 0.9% (0.1 ml/10 g) saline were used as control. Another group of animals was treated with 0.5 mg/kg dexamethasone, subcutaneously, 4 hours before the test, and used as positive control. After 60 minutes, the animals received intraplantar injections of 100 μl of carrageenin (300 μg/paw) and were sacrificed after 180 minutes. Control animals received saline. The subcutaneous tissue of the injected paws was removed and put in a phosphate buffer containing 0.5% tween 20, 0.1 mM benzametonium chloride, 10 mM EDTA, 2 μg/m aprotinin, 0.1 mM PMSF (phenyl methyl sulfonyl fluoride) and 0.5% BSA (bovine serum albumin). The tissues were homogenized and centrifuged at 3000 g, for 10 min, at −4° C. The supernatant was used in the test. The levels of TNFαwere measures with an Elisa kit, according to the manufacturer's instructions (R & D Systems®, USA). The tests were performed in duplicate, and repeated three times. The answers are expressed in pg/mg of tissue. […]

Row | SMILES | histamine-induced oedema formation [1] | production of pro-inflammatory cytokine TNFα induced by carrageenin in the paws of rats [2]
1 | C/C1=C\CC/C(C)=C/CC(C)(C)/C=C/C1 [alpha-humulene] | significantly reduced histamine-induced oedema formation | 
2 | C=C1CC/C=C(\C)CC[C@@H]2[C@@H]1CC2(C)C [trans-caryophyllene] |  | markedly inhibited the production
